# From US9993554B2 (CENTRO NACIONAL DE INVESTIGACIONES ONCOLOGICAS (CNIO), priority 2010, dated 2018)
# Target: T1, PI3K (p110α/p85α) (Homo sapiens, UniProt P42336)
# T1 construct: purchased Carna Biosciences 07CBS-0402A
# Experiment: PI3K activity assay (ADP Hunter Plus)
# Format: biochemical
# Conditions: quantitative results, Table 4; read-out: PI3Kα IC50
# Procedure: The kinase activity was measured by using the commercial ADP Hunter™ Plus assay available from DiscoveRx (#33-016), which is a homogeneous assay to measure the accumulation of ADP, a universal product of kinase activity. […] Reaction was carried out for 1 hour at 25° C. Reagent A and B were sequentially added to the wells and plates were incubated for 30 min at 37° C. […] Values were normalized against the control activity included for each enzyme (i.e., 100% PI3 kinase activity, without compound). These values were plot against the inhibitor concentration and were fit to a sigmoid dose-response curve by using the Graphad software.
# T1 sequence (P42336 whole entry): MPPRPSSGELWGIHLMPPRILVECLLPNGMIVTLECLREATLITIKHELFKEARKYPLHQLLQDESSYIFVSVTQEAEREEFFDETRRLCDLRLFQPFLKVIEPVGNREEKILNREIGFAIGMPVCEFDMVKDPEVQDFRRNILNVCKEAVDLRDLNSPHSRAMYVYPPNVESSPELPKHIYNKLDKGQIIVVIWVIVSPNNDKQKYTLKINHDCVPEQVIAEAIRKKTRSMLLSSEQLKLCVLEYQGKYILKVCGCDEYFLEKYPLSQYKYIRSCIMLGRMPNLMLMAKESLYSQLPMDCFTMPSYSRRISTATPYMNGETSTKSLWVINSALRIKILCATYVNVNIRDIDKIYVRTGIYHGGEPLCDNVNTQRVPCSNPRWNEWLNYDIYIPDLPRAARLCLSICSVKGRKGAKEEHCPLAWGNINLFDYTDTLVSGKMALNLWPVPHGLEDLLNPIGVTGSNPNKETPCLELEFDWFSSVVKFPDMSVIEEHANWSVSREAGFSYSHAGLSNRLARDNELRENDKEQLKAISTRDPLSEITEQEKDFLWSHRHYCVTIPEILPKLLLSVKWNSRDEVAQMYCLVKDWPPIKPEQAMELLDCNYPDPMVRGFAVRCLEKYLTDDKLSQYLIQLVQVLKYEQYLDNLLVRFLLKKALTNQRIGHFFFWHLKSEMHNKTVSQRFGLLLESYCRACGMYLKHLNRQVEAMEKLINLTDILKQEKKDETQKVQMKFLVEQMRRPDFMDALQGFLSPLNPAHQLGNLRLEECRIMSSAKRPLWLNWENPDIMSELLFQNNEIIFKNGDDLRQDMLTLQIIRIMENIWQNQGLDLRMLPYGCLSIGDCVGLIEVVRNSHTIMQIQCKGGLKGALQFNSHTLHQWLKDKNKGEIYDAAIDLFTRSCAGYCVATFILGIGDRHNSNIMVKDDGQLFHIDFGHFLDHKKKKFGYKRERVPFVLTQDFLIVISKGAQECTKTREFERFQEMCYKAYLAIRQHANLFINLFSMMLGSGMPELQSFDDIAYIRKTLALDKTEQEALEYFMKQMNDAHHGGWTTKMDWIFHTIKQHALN
# T1 sequence (P27986 whole entry partner): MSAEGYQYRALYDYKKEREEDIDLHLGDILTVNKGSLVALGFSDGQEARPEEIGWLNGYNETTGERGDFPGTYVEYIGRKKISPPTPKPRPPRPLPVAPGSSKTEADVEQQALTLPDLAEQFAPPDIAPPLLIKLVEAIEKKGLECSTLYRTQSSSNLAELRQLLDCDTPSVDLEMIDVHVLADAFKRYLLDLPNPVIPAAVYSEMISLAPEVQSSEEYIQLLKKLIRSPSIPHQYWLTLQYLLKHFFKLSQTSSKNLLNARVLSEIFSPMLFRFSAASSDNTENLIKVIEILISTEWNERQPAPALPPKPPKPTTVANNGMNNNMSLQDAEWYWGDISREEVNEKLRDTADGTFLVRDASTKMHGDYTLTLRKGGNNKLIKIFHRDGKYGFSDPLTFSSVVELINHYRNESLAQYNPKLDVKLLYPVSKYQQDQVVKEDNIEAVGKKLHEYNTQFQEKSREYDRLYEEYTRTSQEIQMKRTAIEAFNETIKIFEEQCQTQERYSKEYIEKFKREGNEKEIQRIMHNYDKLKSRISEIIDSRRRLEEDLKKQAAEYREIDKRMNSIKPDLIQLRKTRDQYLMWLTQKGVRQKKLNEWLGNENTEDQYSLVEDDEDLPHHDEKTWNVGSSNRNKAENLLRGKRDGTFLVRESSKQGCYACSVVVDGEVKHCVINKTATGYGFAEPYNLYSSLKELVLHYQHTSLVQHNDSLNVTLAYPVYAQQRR
row,IC50,Structure (SMILES)
1,3 µM,CS(=O)(=O)N1CC2(CCN(Cc3cn4cc(-c5cccc6[nH]ncc56)nc(N5CCOCC5)c4n3)CC2)C1 [Compound 2-145]
2,37 µM,CS(=O)(=O)N1CCN(Cc2cn3cc(-c4ccc5[nH]ncc5c4)nc(N4CCOCC4)c3n2)CC1 [Compound 2-127]

# Same assay, conditions: quantitative results; read-out: PI3Kα IC50
row,IC50,Structure (SMILES)
1,4.5 µM,COc1ccc(-c2cn3cc(CN4CCN(S(C)(=O)=O)CC4)nc3c(N3CCOCC3)n2)cn1 [Compound 2-61]
2,0.113 µM,CS(=O)(=O)N1CCN(Cc2cn3cc(-c4cnc5[nH]ccc5c4)nc(N4CCOCC4)c3n2)CC1 [Compound 2-75]
3,0.169 µM,CS(=O)(=O)N1CCN(Cc2cn3cc(-c4ccc(N)nc4)nc(N4CCOCC4)c3n2)CC1 [Compound 2-66]
4,11 µM,CS(=O)(=O)N1CCN(Cc2cn3cc(-c4ccc(C(N)=O)cc4)nc(N4CCOCC4)c3n2)CC1 [Compound 2-68]

# Further lines, the compound ahead of its results:
row,Structure (SMILES),IC50
1,CS(=O)(=O)N1C2CCC1CN(Cc1cn3cc(-c4cnc(N)nc4)nc(N4CCOCC4)c3n1)C2 [Compound 2-228],0.108 µM
2,Cc1cn2cc(-c3ccc4cc[nH]c4c3)nc(N3CCOCC3)c2n1 [Compound 2-25],10 µM
3,Cc1cn2cc(-c3cccc(NS(C)(=O)=O)c3)nc(N3CCOCC3)c2n1 [Compound 2-28],50 µM
4,CNC(=O)Nc1ccc(-c2cn3cc(CN4CCN(S(C)(=O)=O)CC4)nc3c(N3CCOCC3)n2)cc1 [Compound 2-82],0.158 µM

# Same assay, conditions: semi-quantitative results; read-out: PI3Kα IC50 (semi-quantitative class)
row,IC50,Structure (SMILES)
1,0.1 to 1 µM,CS(=O)(=O)N1CCN(C(=O)c2cn3cc(-c4cccc5[nH]ncc45)nc(N4CCOCC4)c3n2)CC1 [Compound 2-16]
2,0.1 to 1 µM,CS(=O)(=O)N1CCN(Cc2cn3c(Cl)c(-c4cccc5[nH]ncc45)nc(N4CCOCC4)c3n2)CC1 [Compound 2-60]
3,0.1 to 1 µM,CS(=O)(=O)N1CCN(c2cnc3c(N4CCOCC4)nc(-c4cccc5[nH]ncc45)cn23)CC1 [Compound 2-41]
4,0.1 to 1 µM,CN1CCN(c2cnc3c(N4CCOCC4)nc(-c4cccc5[nH]ncc45)cn23)CC1 [Compound 2-38]
5,0.1 to 1 µM,O=C(c1cn2cc(-c3cccc4[nH]ncc34)nc(N3CCOCC3)c2n1)N1CCNCC1 [Compound 2-18]

# More lines, now with the values behind:
row,Structure (SMILES),IC50
1,COc1cncc(-c2cn3cc(CN4CCN(S(C)(=O)=O)CC4)nc3c(N3CCOCC3)n2)c1 [Compound 2-65],> 1 µM
2,Oc1cccc(-c2cn3c(N4CCNCC4)cnc3c(N3CCOCC3)n2)c1 [Compound 2-40],0.1 to 1 µM
3,Cc1cn2c(Cl)c(-c3cccc(O)c3)nc(N3CCOCC3)c2n1 [Compound 2-49],0.1 to 1 µM
4,CS(=O)(=O)N1CCN(c2cnc3c(N4CCOCC4)nc(-c4cccc(O)c4)cn23)CC1 [Compound 2-39],0.1 to 1 µM
5,CN1CCN(c2cnc3c(N4CCOCC4)nc(-c4cccc(O)c4)cn23)CC1 [Compound 2-37],0.1 to 1 µM
6,COc1ncc(-c2cn3cc(CN4CCN(S(C)(=O)=O)CC4)nc3c(N3CCOCC3)n2)cn1 [Compound 2-67],0.1 to 1 µM
7,Cc1nc2c(N3CCOCC3)nc(-c3cccc4[nH]ncc34)cn2c1C1CCN(C)CC1 [Compound 2-58],0.1 to 1 µM

# System: phospho-Ser-473-Akt
# Experiment: AKT phosphorylation inhibition, Western blot cell assay
# Format: cell-based
# Conditions: Homo sapiens; cell assay procedure; read-out: IC50 of AKT Phosphorylation Inhibition, p-AKT cell
# Procedure: The cell lines were obtained from the American Type Culture Collection (ATCC). U2OS (human osteosarcoma) was cultured in Dulbecco's modified Eagle's medium (DMEM). PC3 (human prostate carcinoma), MCF7 (human breast cardinoma), HCT116 (human colon carcinoma), 768-0 (human neuroblastoma), U251 (human glyoblastoma) were grown in RPMI. All media were supplemented with 10% fetal bovine serum (FBS) (Sigma) and antibiotics-antimycotics. Cell were maintained in a humidified incubator at 37° C. with 5% CO2 and passaged when confluent using trypsin/EDTA.
# Subconfluent cells were incubated under different conditions and washed twice with TBS prior to lysis. Lysis buffer was added containing 50 mM Tris HCl, 150 mM NaCl, 1% NP-40, 2 mM Na3VO4, 100 mM NaF, 20 mM Na4P2O7 and protease inhibitor cocktail (Roche Molecular Biochemicals). The proteins were resolved on 10% SDS-PAGE and transferred to nitrocellulose membrane (Schleicher & Schuell, Dassel, Germany). The membranes were incubated overnight at 4° C. with antibodies specific for Akt, phospho-Ser-473-Akt (Cell Signaling Technology) and α-tubulin (Sigma), they were washed and then incubated with IRDye800 conjugated anti-mouse and Alexa Fluor 680 goat anti-rabbit IgG secondary antibodies. The bands were visualized using an Odyssey infrared imaging system (Li-Cor Biosciences).
row,IC50,Structure (SMILES)
1,0.503 µM,CS(=O)(=O)N1CCN(C(=O)c2cn3cc(-c4cccc5[nH]ncc45)nc(N4CCOCC4)c3n2)CC1 [Compound 2-16]
2,0.077 µM,CS(=O)(=O)N1CCN(Cc2cn3cc(-c4cnc5[nH]ccc5c4)nc(N4CCOCC4)c3n2)CC1 [Compound 2-75]
3,0.198 µM,COc1ncc(-c2cn3cc(CN4CCN(S(C)(=O)=O)CC4)nc3c(N3CCOCC3)n2)cn1 [Compound 2-67]
4,0.014 µM,CS(=O)(=O)N1CCN(Cc2cn3cc(-c4ccc(N)nc4)nc(N4CCOCC4)c3n2)CC1 [Compound 2-66]
